Counter-ions that a name gives are not always drawn.
Target: T1, ACAT (Homo sapiens, UniProt P35610)
T1 construct: endogenous in cells; host or cells: HepG2
T1 sequence (P35610 1-550): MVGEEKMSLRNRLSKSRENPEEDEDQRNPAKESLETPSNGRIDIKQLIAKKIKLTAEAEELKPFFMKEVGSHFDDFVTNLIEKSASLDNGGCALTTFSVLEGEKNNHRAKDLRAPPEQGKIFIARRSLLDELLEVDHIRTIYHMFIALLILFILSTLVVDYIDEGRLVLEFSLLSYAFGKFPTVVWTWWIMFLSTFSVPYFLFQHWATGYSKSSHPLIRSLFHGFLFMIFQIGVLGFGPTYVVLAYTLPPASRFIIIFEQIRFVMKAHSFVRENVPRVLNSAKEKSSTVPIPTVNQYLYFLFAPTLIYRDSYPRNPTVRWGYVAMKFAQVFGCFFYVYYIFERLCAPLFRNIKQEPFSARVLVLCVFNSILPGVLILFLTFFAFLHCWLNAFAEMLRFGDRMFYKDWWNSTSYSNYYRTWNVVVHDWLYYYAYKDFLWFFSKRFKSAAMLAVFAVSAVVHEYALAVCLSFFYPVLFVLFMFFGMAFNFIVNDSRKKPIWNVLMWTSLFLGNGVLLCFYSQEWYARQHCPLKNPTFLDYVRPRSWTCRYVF
Assay: ACAT inhibition: radiolabelled cholesterol oleate production from labelled oleic acid in HepG2 cells
Type: cell-based
Details: concentration required to inhibit 50% of ACAT (cholesterol oleate production vs control)
Method: ACAT inhibition of the compounds of the present invention were assayed by the following method. HepG2 cell coming from human hepatic cancer cell was used for assaying ACAT activity. Thus, the assay was effected by adding radioactivity labelled oleic acid-bovine serum albumin complex into an incubation solution of HepG2 cell and measuring the amount of radioactivity labelled cholesterol oleate produced from the radioactivity labelled oeleic acid within the cell. Therefore, the activity of the compound of this invention to inhibit ACAT was obtained by calculating how much percent lowered the productivity of cholesterol oleate in control group containing no test compound by adding the test compound in each concentration (μM) and then expressing IC50 value, namely concentration of a test compound required to inhibit 50% expression of enzyme.

SMILES | IC50
CCCCCC(CCC(=O)Nc1c(C(C)C)cccc1C(C)C)c1cccc(OC)c1OC (centres unmarked) [Example 9, N-(2,6-Diisopropylphenyl)-4-(2,3-dimethoxyphenyl) nonanamide] | 50 nM
CCCCC[C@H](CC(=O)Nc1c(C(C)C)ccc(N(C)C)c1C(C)C)c1cccc2c1OCO2 [Example 18, (R)-N-(2,6-diisopropyl-3-dimethylaminophenyl)-3-(2,3-methylenedioxyphenyl) octanamide hydrochloride] | 101 nM
CCCCC[C@@H](CNC(=O)Nc1c(OC(C)C)ccc2c1CCCC2)c1cccc2c1OCO2 [Example 20, (R)-1-[2-(2,3-methylenedioxyphenyl)heptyl]-3-(2-isopropoxy-5,6,7,8-tetrahydronaphthalene-1-yl) urea] | 37 nM
CCCCC[C@@H](CNC(=O)Nc1c(OC)ccc2c1CCCC2)c1cccc2c1OCO2 [Example 21, (R)-1-[2-(2,3-methylenedioxyphenyl)heptyl]-3-(2-methoxy-5,6,7,8-tetrahydronaphthalene-1-yl) urea] | 154 nM
CCCCC[C@@H](CNC(=O)Nc1c(OCC)ccc2c1CCCC2)c1cccc2c1OCO2 [Example 22, (R)-1-[2-(2,3-methylenedioxyphenyl)heptyl]-3-(2-ethoxy-5,6,7,8-tetrahydronaphthalene-1-yl) urea] | 139 nM
CCCCC[C@@H](CNC(=O)Nc1c(OCC)ccc2c1CCC2)c1cccc2c1OCO2 [Example 23, (R)-1-[2-(2,3-methylenedioxyphenyl)heptyl]-3-(5-ethoxyindane-4-yl) urea] | 195 nM
CCCCC[C@@H](CNC(=O)Nc1cccc2c1OC(C)(C)C2)c1cccc2c1OCO2 [Example 24, (R)-1-[2-(2,3-methylenedioxyphenyl)heptyl]-3-(2,3-dihydro-2,2-dimethylbenzofuran-7-yl) urea] | 230 nM
CCCCC[C@@H](CNC(=O)Nc1c(N(C)C)ncnc1N(C)C)c1cccc2c1OCO2 [Example 25, (R)-1-[2-(2,3-methylenedioxyphenyl)heptyl]-3-[4,6-bis (dimethylamino)pyrimidine-5-yl]urea] | 57 nM
CCCCC[C@@H](CNC(=O)Nc1c(N2CCCC2)ncnc1N1CCCC1)c1cccc2c1OCO2 [Example 26, (R)-1-[2-(2,3-methylenedioxyphenyl)heptyl]-3-(4,6-dipyrrolidinopyrimidine-5-yl) urea] | 175 nM
CCCCC[C@@H](CNC(=O)Nc1c(OC(C)C)ncnc1OC(C)C)c1cccc2c1OCO2 [Example 29, (R)-1-[2-(2,3-methylenedioxyphenyl)heptyl]-3-[4,6-di (1-methylethoxy)pyrimidine-5-yl]urea] | 314 nM
CCCCC[C@@H](CNC(=O)Nc1c(OCC)ncnc1N(C)C)c1cccc2c1OCO2 [Example 30, (R)-1-[2-(2,3-methylenedioxyphenyl)heptyl]-3-(4-dimethylamino-6-ethoxypyrimidine-5-yl) urea] | 109 nM
CCCCC[C@@H](CNC(=O)Nc1c(OC(C)C)c(C)nn1-c1ccccc1)c1cccc2c1OCO2 [Example 31, (R)-1-[2-(2,3-methylenedioxyphenyl)heptyl]-3-[3-methyl-4-(1-methylethoxy)-1-phenylpyrazole-5-yl]urea] | 28 nM
CCCCC[C@@H](CNC(=O)Nc1c(OC(C)C)c(C)nn1C(C)(C)C)c1cccc2c1OCO2 [Example 34, (R)-1-[2-(2,3-methylenedioxyphenyl)heptyl]-3-[1-(1,1-dimethylethyl)-3-methyl-4-(1-methylethoxy)pyrazole-5-yl]urea] | 106 nM

Now those with a lower IC50, led by results:

IC50 | SMILES
10 nM | CCCCCC(CC(=O)Nc1c(C(C)C)cccc1C(C)C)c1cccc2c1OCO2 (centres unmarked) [Example 1, N-(2,6-diisopropylphenyl)-3-(2,3-methylenedioxyphenyl)octanamide]
3 nM | CCCCCC(CC(=O)Nc1c(C(C)C)cccc1C(C)C)c1cccc(OC)c1OC (centres unmarked) [Example 2, N-(2,6-Diisopropylphenyl)-3-(2,3-dimethoxyphenyl)octanamide]
18 nM | CCCCC(CC(=O)Nc1c(C(C)C)cccc1C(C)C)c1cccc(OC)c1OC (centres unmarked) [Example 3, N-(2,6-Diisopropylphenyl)-3-(2,3-dimethoxyphenyl) heptanamide]
6.5 nM | CCCCCCC(CC(=O)Nc1c(C(C)C)cccc1C(C)C)c1cccc(OC)c1OC (centres unmarked) [Example 4, N-(2,6-Diisopropylphenyl)-3-(2,3-dimethoxyphenyl) nonanamide]
10 nM | CCCCCC(CCC(=O)Nc1c(C(C)C)cccc1C(C)C)c1cccc2c1OCO2 (centres unmarked) [Example 8, N-(2,6-Diisopropylphenyl)-4-(2,3-methylenedioxyphenyl)nonanamide]
7.6 nM | CCCCCC(CC(=O)Nc1c(C(C)C)cccc1C(C)C)c1cc(C(C)=O)cc(OC)c1OC (centres unmarked) [Example 10, N-(2,6-Diisopropylphenyl)-3-(5-acetyl-2,3-dimethoxyphenyl) octanamide]
0.9 nM | CCCCCC(CC(=O)Nc1c(C(C)C)cccc1C(C)C)c1cc(N(C)C)cc(OC)c1OC (centres unmarked) [Example 17, N-(2,6-diisopropylphenyl)-3-(2,3-dimethoxy-5-dimethylaminophenyl) octanamide]

— patent US5442060A, “Carboxamide derivatives” (Mitsubishi Kasei Corporation, priority 1992, dated 1995)
